According to US9034898B2, “FGF receptor (FGFR) agonist dimeric compounds, process for the preparation thereof and therapeutic use thereof” (Sanofi, priority 2011, dated 2015):

Columns and labels:
[1] = tested on: human venous endothelial cells (HUVECs); assay: In vitro angiogenesis model (pseudotubule length of HUVECs on matrigel/collagen); assay type: cell-based; design: % activation with respect to FGF2 (in vitro): concentration or dose not given beside the values; conditions: for EC50 / % activation with respect to FGF2 (in vitro): in vitro; for activity on the in vitro angiogenesis model: at a concentration of 1 nM, HUVECs, 24 hours; for % activation with respect to FGF2 (in vitro): relative to FGF2
Protocol: In Vitro Angiogenesis Model
The products are tested for their ability to cause rearrangement of human venous endothelial cells (HUVECs) on matrigel (Becton dickinson 356230) diluted in collagen (rat tail collagen, type I: Becton dickinson 354236). After 24 hours, the cells are observed under a microscope with a X4 objective and the length of the pseudotubules is measured by means of an image analyser (BIOCOM-logiciel Visiolab 2000).
By way of example, compounds 1, 2, 3, 5 and 9 are active at a concentration of 1 nM on the in vitro angiogenesis model.

BalbC mice = assay: Sponge angiogenesis model (haemoglobin content of implanted cellulose sponge); assay type: in vivo; conditions: concentration of 300 μM injected into the sponge, eighth day after implantation
Description: Sponge Angiogenesis Model
The sponge angiogenesis model is an adaptation of the technique of Andrade et al [Andrade S P, Machado R., Teixeir A S, Belo A V, Tarso A M, Beraldo W T—Sponge-induced angiogenesis in mice and the pharmacological reactivity of the neovasculature quantitated by fluorimetric method, Microvascular Research, 1997, 54: 253-61.]
The mice used are BalbC females from Charles River Laboratory, 7 to 10 weeks old. The animals are anaesthetized by intraperitoneal injection of a xylazine/ketamine mixture ([…] in 0.9% NaCl). The animal's back is shaved and disinfected with hexomedine. A subcutaneous 5 ml pocket of air is made on the animal's back with sterile air. An incision is then made (approximately 1 cm) on the top of the animal's back in order to implant the sponge into the pocket. The biocompatible cellulose sponge (Cellspon, Interchim, 10 mm in diameter) was sterilized beforehand (autoclave 20 min at 120° C.) and is impregnated with 50 μl of sterile solution containing the test product. Suturing is performed by inserting two 9-mm stainless steel autoclip staples (Subra). The wound is again disinfected with hexomedine. […]
To assay the haemoglobin, 50 μl of each sample are deposited in a 96-well plate, in duplicate. […] The OD values are read on a spectrophotometer at 405 nm, using the Biolise software (Tecan, France). […]

With `O=C(O)c1cc(-c2cc(C(=O)NCCCOCCOCCOCCCNC(=O)c3cc(-c4ccc(F)c(C(=O)O)c4)nc4[nH]nc(-c5ccccc5)c34)c3c(-c4ccccc4)n[nH]c3n2)ccc1F` [Compound 2, 5-[4-({15-[6-(3-carboxy-4-fluorophenyl)-3-phenyl-1H-pyrazolo[3,4-b]pyridin-4-yl]-15-oxo-4,7,10-trioxa-14-azapentadec-1-yl}carbamoyl)-3-phenyl-1H-pyrazolo[3,4-b]pyridin-6-yl]-2-fluorobenzoic acid] as the molecule, how does the EC50 ([1]; Homo sapiens, HUVEC) read?
The EC50 was < 1 nM.

What about the “activity on the in vitro angiogenesis model” value [1] of the same molecule?
The value was “active”.

What about the “% activation with respect to FGF2 (in vitro)” value (“% activation” below) [1] of the same molecule?
Its value is 84%.

What about the “activity on the in vivo angiogenesis model” value (BalbC mice) of the same molecule?
Its value is “active”.

With `O=C(O)c1cc(-c2cc(C(=O)NCCCOCCOCCCNC(=O)c3cc(-c4ccc(F)c(C(=O)O)c4)nc4[nH]nc(-c5ccccc5)c34)c3c(-c4ccccc4)n[nH]c3n2)ccc1F` [Compound 1, 3,3′-{ethane-1,2-diylbis[oxypropane-3,1-diylcarbamoyl(3-phenyl-1H-pyrazolo[3,4-b]pyridine-4,6-diyl)]}bis(6-fluorobenzoic acid)] as the molecule, how does the “activity on the in vitro angiogenesis model” value [1] read?
Its value is “active”.

What about the EC50 [1] of the same molecule?
The EC50 was < 1 nM.

And the “% activation” value [1]?
Its value is 84%.

For `NC(=O)c1cc(-c2ccc(F)c(C(=O)O)c2)nc2[nH]nc(-c3ccc(C(=O)NCCCOCCOCCOCCCNC(=O)c4ccc(-c5n[nH]c6nc(-c7ccc(F)c(C(=O)O)c7)cc(C(N)=O)c56)cc4)cc3)c12` [Compound 8, 5-(4-carbamoyl-3-{4-[(15-{4-[4-carbamoyl-6-(3-carboxy-4-fluorophenyl)-1H-pyrazolo[3,4-b]pyridin-3-yl]phenyl}-15-oxo-4,7,10-trioxa-14-azapentadec-1-yl)carbamoyl]phenyl}-1H-pyrazolo[3,4-b]pyridin-6-yl)-2-fluorobenzoic acid], which EC50 ([1]; Homo sapiens, HUVEC) is on record?
The EC50 was < 100 nM.

What about the “% activation” value [1] of the same molecule?
The value was 20%.

What does the source list for `NC(=O)c1cc(-c2ccc(F)c(C(=O)O)c2)nc2[nH]nc(-c3cccc(C(=O)NCCCOCCOCCOCCCNC(=O)c4cccc(-c5n[nH]c6nc(-c7ccc(F)c(C(=O)O)c7)cc(C(N)=O)c56)c4)c3)c12` [Compound 6, 5-(4-carbamoyl-3-{3-[(15-{3-[4-carbamoyl-6-(3-carboxy-4-fluorophenyl)-1H-pyrazolo[3,4-b]pyridin-3-yl]phenyl}-15-oxo-4,7,10-trioxa-14-azapentadec-1-yl)carbamoyl]phenyl}-1H-pyrazolo[3,4-b]pyridin-6-yl)-2-fluorobenzoic acid]?
EC50 ([1]; Homo sapiens, HUVEC): 3 nM; % activation with respect to FGF2 (in vitro) [1]: 50%

How did the EC50 ([1]; Homo sapiens, HUVEC) turn out when `O=C(O)c1cc(-c2cc(C(=O)NCCCOCCOCCOCCOCCOCCCNC(=O)c3cc(-c4ccc(F)c(C(=O)O)c4)nc4[nH]nc(-c5ccccc5)c34)c3c(-c4ccccc4)n[nH]c3n2)ccc1F` [Compound 5, 5-[4-({21-[6-(3-carboxy-4-fluorophenyl)-3-phenyl-1H-pyrazolo[3,4-b]pyridin-4-yl]-21-oxo-4,7,10,13,16-pentaoxa-20-azahenicos-1-yl}carbamoyl)-3-phenyl-1H-pyrazolo[3,4-b]pyridin-6-yl]-2-fluorobenzoic acid] was run?
The EC50 was < 1 nM.

And the “activity on the in vitro angiogenesis model” value [1]?
Its value is “active”.

And the “% activation” value [1]?
The value was 124%.

How did the EC50 ([1]; Homo sapiens, HUVEC) turn out when `O=C(O)c1cc(-c2cc(C(=O)NCCOCCOCCOCCOCCNC(=O)c3cc(-c4ccc(F)c(C(=O)O)c4)nc4[nH]nc(-c5ccccc5)c34)c3c(-c4ccccc4)n[nH]c3n2)ccc1F` [Compound 3, 5-[4-({16-[6-(3-carboxy-4-fluorophenyl)-3-phenyl-1H-pyrazolo[3,4-b]pyridin-4-yl]-16-oxo-3,6,9,12-tetraoxa-15-azahexadec-1-yl}carbamoyl)-3-phenyl-1H-pyrazolo[3,4-b]pyridin-6-yl]-2-fluorobenzoic acid] was run?
The EC50 was < 1 nM.

And the “activity on the in vitro angiogenesis model” value [1]?
The value was “active”.

And the “% activation” value [1]?
Its value is 75%.

For `NC(=O)c1cc(-c2ccc(F)c(C(=O)O)c2)nc2[nH]nc(-c3ccc(C(=O)NCCOCCOCCNC(=O)c4ccc(-c5n[nH]c6nc(-c7ccc(F)c(C(=O)O)c7)cc(C(N)=O)c56)cc4)cc3)c12` [Compound 9, 3,3′-{ethane-1,2-diylbis[oxyethane-2,1-diylcarbamoylbenzene-4,1-diyl(4-carbamoyl-1H-pyrazolo[3,4-b]pyridine-3,6-diyl)]}bis(6-fluorobenzoic acid)], which “activity on the in vitro angiogenesis model” value [1] is on record?
The value was “active”.

And the EC50 [1]?
The EC50 was < 1 nM.

What about the “% activation” value [1] of the same molecule?
Its value is 60%.
